For two compounds, Ki, half-life and melting point results are on record in article PMC7956643, “Synthesis of Novel Pyrido[1,2-c]pyrimidine Derivatives with 6-Fluoro-3-(4-piperidynyl)-1,2-benzisoxazole Moiety as Potential SSRI and 5-HT1A Receptor Ligands” (International Journal of Molecular Sciences, 2021).

For one series, the target named is T1, human 5-HT1A receptor (Homo sapiens, UniProt P08908).
T1 construct: purchased PerkinElmer; host or cells: CHO-K1 cells, stably transfected
T1 sequence (P08908 1-422): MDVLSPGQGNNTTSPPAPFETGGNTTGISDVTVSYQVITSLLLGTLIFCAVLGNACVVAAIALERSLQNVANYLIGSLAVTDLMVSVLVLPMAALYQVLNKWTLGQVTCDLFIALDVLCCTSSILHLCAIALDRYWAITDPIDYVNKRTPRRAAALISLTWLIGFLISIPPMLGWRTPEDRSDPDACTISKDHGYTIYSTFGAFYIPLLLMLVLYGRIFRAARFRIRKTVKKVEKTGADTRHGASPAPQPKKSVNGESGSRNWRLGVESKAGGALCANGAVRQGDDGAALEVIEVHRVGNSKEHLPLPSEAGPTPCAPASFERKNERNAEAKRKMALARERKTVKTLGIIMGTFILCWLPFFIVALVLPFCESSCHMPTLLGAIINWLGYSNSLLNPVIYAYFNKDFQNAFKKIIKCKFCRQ
Description: 5-HT1A radioligand binding assay. Conditions: [3H]-8-OH-DPAT 1 nM; membranes from CHO-K1 cells with human 5-HT1A receptor. How it is done:
Radioligand binding was performed using membranes from CHO-K1 cells stably transfected with the human 5-HT1A receptor (PerkinElmer, Fremont, CA, USA). All assays were carried out in duplicate. Then, 50 µL working solution of the tested compounds, 50 µL [^3H]-8-OH-DPAT (final concentration 1 nM) and 150 µL diluted membranes (20 µg protein per well) prepared in assay buffer (50 mM Tris, pH 7.4, 10 mM MgSO4, 0.5 mM EDTA, 0.1% ascorbic acid) were transferred to a polypropylene 96-well microplate using 96-wells pipetting station Rainin Liquidator (MettlerToledo, Columbus, OH, USA). […] The reaction was terminated by rapid filtration through GF/B filter mate, presoaked with 0.5% polyethyleneimine for 30 min. Ten rapid washes with 200 µL 50 mM Tris buffer (4 °C, pH 7.4) were performed using an automated harvester system—Harvester-96 MACH III FM (Tomtec, Hamden, CT, USA). […] Data were fitted to a one-site curve-fitting equation with Prism 6 (GraphPad Software, San Diego, CA, USA) and Ki values were estimated from the Cheng–Prusoff equation.

Another series concerns the target T2, 5-HT2A receptors (Homo sapiens, UniProt P28223).
T2 construct: expressed in transfected cells
Description: 5-HT2A radioligand binding assay. The conditions noted are these: [3H]-ketanserin; HEK293 cells, human receptor. Here is the method: In vitro radioligand binding assays for 5-HT2A, 5-HT6, 5-HT7 and D2 receptors were carried out using methods published by Zajdel et al.. For the assays, HEK293 cell cultures stably expressing the investigated human receptors were used. Cell pellets were thawed and homogenized in 20 vol of assay buffer using an Ultra Turrax tissue homogenizer, then centrifuged twice at 35000 g for 20 min at 4 °C, with incubation for 15 min at 37 °C in between. The composition of the assay buffers was as follows: for 5-HT2A receptors—50 mM Tris-HCl, 0.1 mM EDTA, 4 mM MgCl2 and 0.1% ascorbate; for 5-HT6 receptors—50 mM Tris-HCl, 0.5 mM EDTA, 4 mM MgCl2; for 5-HT7 receptors—50 mM Tris-HCl, 4 mM MgCl2, 10 µM pargyline and 0.1% ascorbate; for D2 receptors—50 mM Tris-HCl, 1 mM EDTA, 4 mM MgCl2, 120 mM NaCl, 5 mM KCl, 1.5 mM CaCl2 and 0.1% ascorbate. […] The process of equilibration was terminated by rapid filtration through Unifilter plates with a 96-well cell harvester, and radioactivity retained on the filters was quantified on a Microbeta plate reader (PerkinElmer, USA). For displacement studies, the assay samples contained as radioligands (PerkinElmer): 2 nM [^3H]-ketanserin (spec. act. 53.4 Ci/mmol) for 5-HT2A receptors; 2 nM [^3H]-LSD (spec. act. 83.6 Ci/mmol) for 5-HT6 receptors; 0.6 nM [^3H]-5-CT (spec. act. 39.2 Ci/mmol) for 5-HT7 receptors and [^3H]-raclopride (spec. act. 76.0 Ci/mmol) for D2 receptors. […] Each compound was tested in triplicate at 7–8 concentrations (10^-11-10^-4 M). The inhibition constants (Ki) were calculated from the Cheng–Prusoff equation [46]. Results were expressed as means of at least two separate experiments.

Series [1] can be described thus: Metabolic stability in pooled human liver microsomes. Format: in vitro ADME. Conditions: pH 7.4, pooled HLMs 1 mg/mL, NADPH, 1 µM compound, 37 °C. How it is done: Stock solutions of studied compounds were prepared at concentration of 100 µM in 1:1 acetonitrile/water mixture. Incubation mixes consisted 1 μM of a studied compound, 100 µM of NADPH in phosphate buffer and 1 mg/mL of pooled HLMs (Sigma-Aldrich, St. Louis, MO, USA) in potassium phosphate buffer (0.1 M, pH 7.4). Incubation was carried out in 96-well plates at 37 °C. Incubation mixtures (excluding compound solution) were subjected to 5 min preincubations, and started by addition of 10 µL of compound stock solution. After 0, 5, 10, 15, and 30 min, 25 µL samples of incubation reaction were added to the equal volume of ice-cold acetonitrile containing 1 µM of IS (buspirone hydrochloride). Control incubations were performed without NADPH to assess possible chemical instability. All samples were immediately centrifuged (10 min, 10,000 rpm) and the resulting supernatant was directly subjected to LC-MS analysis.
LC-MS analysis was performed on an Agilent 1260 system coupled to SingleQuad 6120 mass spectrometer (Agilent Technologies, Santa Clara, CA, USA). A Poroshell C18 EC120 column (3.0 × 100 mm^2, 2.7 μm, Agilent Technologies, Santa Clara, CA, USA) was used in reversed-phase mode with gradient elution starting with 90% of phase A (0.1% formic acid in deionised water) and 10% of phase B (0.1% formic acid in acetonitrile). […]

The structures appear in SMILES notation.

T2 sequence (P28223 whole entry): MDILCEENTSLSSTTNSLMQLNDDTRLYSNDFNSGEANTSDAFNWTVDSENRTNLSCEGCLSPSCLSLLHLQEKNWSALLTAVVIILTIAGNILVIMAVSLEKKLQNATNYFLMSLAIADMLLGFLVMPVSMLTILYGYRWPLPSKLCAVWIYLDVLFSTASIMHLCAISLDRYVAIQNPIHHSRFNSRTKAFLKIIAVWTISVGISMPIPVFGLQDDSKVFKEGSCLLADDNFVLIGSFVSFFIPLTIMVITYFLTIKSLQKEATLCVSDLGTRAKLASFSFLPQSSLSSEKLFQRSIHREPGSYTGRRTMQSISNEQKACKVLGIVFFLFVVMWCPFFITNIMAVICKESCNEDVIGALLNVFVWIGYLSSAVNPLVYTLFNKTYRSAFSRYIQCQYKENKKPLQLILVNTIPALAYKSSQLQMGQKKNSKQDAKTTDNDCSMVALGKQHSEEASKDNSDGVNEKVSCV

Consider `O=c1c(-c2ccccc2)c2ccccn2c(=O)n1CCCCN1CCC(c2noc3cc(F)ccc23)CC1` [Compound 6a, 4-Phenyl-2-{4-[4-(6-fluoro-1,2-benzoxazol-3-yl)-1-piperidyl]butyl}-pyrido[1,2-c]pyrimidine-1,3-dione], for which the melting point – broadly, the temperature of the solid-liquid transition – lay in the range of 132 to 133 °C. Affinity on human 5-HT1A receptor was put at a Ki of 23 ± 1 nM. Also, affinity on 5-HT2A receptors was put at a Ki of 17 ± 3 nM. The half-life (in general, the time needed for the level to fall by half in the phase considered) at 1 µM in series [1] is 3.61 min.
The matching figures for `O=c1c(-c2ccccc2Cl)c2ccccn2c(=O)n1CCCCN1CCC(c2noc3cc(F)ccc23)CC1` [Compound 6d, 4-(2-Chlorophenyl)-2-{4-[4-(6-fluoro-1,2-benzoxazol)-1-piperidyl]butyl}-pyrido[1,2-c]pyrimidine-1,3-dione]: 69 to 74 °C, 11 ± 1.4 nM, 20 ± 4 nM and 3.2 min.
